Experimental data published in PubChem BioAssay (NCI).
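Dose response: 5 concentrations. Exposure: 48 h. Format: 96-well plates. Endpoint: linear interpolation; highest concentration if not reached. Definition used: TGI = concentration required for complete inhibition of growth.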

What was measured:
Experiment in all cases: NCI tumour cell line growth inhibition, 48 h
SF-268 CNS = system: SF-268 CNS
KM12 colon = system: KM12 colon
MALME-3M melanoma = system: MALME-3M melanoma
HCT-15 colon = system: HCT-15 colon
DMS 273 small cell lung = system: DMS 273 small cell lung
M19-MEL melanoma = system: M19-MEL melanoma
SK-MEL-28 melanoma = system: SK-MEL-28 melanoma
SF-539 CNS = system: SF-539 CNS
OVCAR-8 ovarian = system: OVCAR-8 ovarian
SNB-78 CNS = system: SNB-78 CNS
SN12C renal = system: SN12C renal
EKVX NSCLC = system: EKVX NSCLC
DMS 114 small cell lung = system: DMS 114 small cell lung
U251 CNS = system: U251 CNS
NCI-H460 lung = system: NCI-H460 lung
A498 renal = system: A498 renal
NCI-H522 lung = system: NCI-H522 lung
HL-60(TB) leukemia = system: HL-60(TB) leukemia
SF-295 CNS = system: SF-295 CNS
KM20L2 colon = system: KM20L2 colon
OVCAR-5 ovarian = system: OVCAR-5 ovarian
SW-620 colon = system: SW-620 colon
ACHN renal = system: ACHN renal
K-562 leukemia = system: K-562 leukemia
OVCAR-4 ovarian = system: OVCAR-4 ovarian
CCRF-CEM leukemia = system: CCRF-CEM leukemia
CAKI-1 renal = system: CAKI-1 renal
XF 498 CNS = system: XF 498 CNS
HT29 colon = system: HT29 colon
RXF 393 renal = system: RXF 393 renal
UACC-257 melanoma = system: UACC-257 melanoma
HCT-116 colon = system: HCT-116 colon
786-0 renal = system: 786-0 renal
M14 melanoma = system: M14 melanoma
RXF-631 renal = system: RXF-631 renal
LOX IMVI melanoma = system: LOX IMVI melanoma
SK-OV-3 ovarian = system: SK-OV-3 ovarian
TK-10 renal = system: TK-10 renal
A549 NSCLC = system: A549 NSCLC
MOLT-4 leukemia = system: MOLT-4 leukemia
NCI-H23 lung = system: NCI-H23 lung
UACC-62 melanoma = system: UACC-62 melanoma
SNB-19 CNS = system: SNB-19 CNS
NCI-H226 lung = system: NCI-H226 lung
SK-MEL-5 melanoma = system: SK-MEL-5 melanoma
HOP-18 NSCLC = system: HOP-18 NSCLC
SNB-75 CNS = system: SNB-75 CNS
LXFL 529 NSCLC = system: LXFL 529 NSCLC
HCC-2998 colon = system: HCC-2998 colon
OVCAR-3 ovarian = system: OVCAR-3 ovarian
DLD-1 colon = system: DLD-1 colon
HOP-62 NSCLC = system: HOP-62 NSCLC
COLO 205 colon = system: COLO 205 colon
SK-MEL-2 melanoma = system: SK-MEL-2 melanoma
SR leukemia = system: SR leukemia
HOP-92 NSCLC = system: HOP-92 NSCLC
IGROV1 ovarian = system: IGROV1 ovarian
UO-31 renal = system: UO-31 renal

Compound: COc1ccc(C2=Nc3ccccc3N=C(SC)C2)cc1
- TGI (SF-268 CNS): > 100 µM
- TGI (KM12 colon): > 100 µM
- TGI (MALME-3M melanoma): > 100 µM
- TGI (HCT-15 colon): > 100 µM
- TGI (DMS 273 small cell lung): > 100 µM
- TGI (M19-MEL melanoma): > 100 µM
- TGI (SK-MEL-28 melanoma): > 100 µM
- TGI (SF-539 CNS): > 100 µM
- TGI (OVCAR-8 ovarian): > 100 µM
- TGI (SNB-78 CNS): > 100 µM
- TGI (SN12C renal): > 100 µM
- TGI (EKVX NSCLC): > 100 µM
- TGI (DMS 114 small cell lung): > 100 µM
- TGI (U251 CNS): > 100 µM
- TGI (NCI-H460 lung): 71.9 µM
- TGI (A498 renal): > 100 µM
- TGI (NCI-H522 lung): 63.2 µM
- TGI (HL-60(TB) leukemia): 43 µM
- TGI (SF-295 CNS): > 100 µM
- TGI (KM20L2 colon): > 100 µM
- TGI (OVCAR-5 ovarian): > 100 µM
- TGI (SW-620 colon): 41 µM
- TGI (ACHN renal): > 100 µM
- TGI (K-562 leukemia): 53.2 µM
- TGI (OVCAR-4 ovarian): > 100 µM
- TGI (CCRF-CEM leukemia): 42 µM
- TGI (CAKI-1 renal): > 100 µM
- TGI (XF 498 CNS): > 100 µM
- TGI (HT29 colon): > 100 µM
- TGI (RXF 393 renal): > 100 µM
- TGI (UACC-257 melanoma): 65.7 µM
- TGI (HCT-116 colon): > 100 µM
- TGI (786-0 renal): > 100 µM
- TGI (M14 melanoma): > 100 µM
- TGI (RXF-631 renal): > 100 µM
- TGI (LOX IMVI melanoma): 34.6 µM
- TGI (SK-OV-3 ovarian): > 100 µM
- TGI (TK-10 renal): > 100 µM
- TGI (A549 NSCLC): > 100 µM
- TGI (MOLT-4 leukemia): > 100 µM
- TGI (NCI-H23 lung): > 100 µM
- TGI (UACC-62 melanoma): > 100 µM
- TGI (SNB-19 CNS): > 100 µM
- TGI (NCI-H226 lung): > 100 µM
- TGI (SK-MEL-5 melanoma): > 100 µM
- TGI (HOP-18 NSCLC): > 100 µM
- TGI (SNB-75 CNS): > 100 µM
- TGI (LXFL 529 NSCLC): > 100 µM
- TGI (HCC-2998 colon): 74.4 µM
- TGI (OVCAR-3 ovarian): > 100 µM
- TGI (DLD-1 colon): > 100 µM
- TGI (HOP-62 NSCLC): > 100 µM
- TGI (COLO 205 colon): > 100 µM
- TGI (SK-MEL-2 melanoma): > 100 µM
- TGI (SR leukemia): > 100 µM
- TGI (HOP-92 NSCLC): 61.9 µM
- TGI (IGROV1 ovarian): > 100 µM
- TGI (UO-31 renal): > 100 µM
